Results on 15 compounds are retold here after PubChem BioAssay (NCI).

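Step 1: Grow cells in 96-well plates. Step 2: Expose to compound for 48 hours at 5 concentrations. Step 3: Interpolate endpoints linearly; if unreached, use highest concentration. Here, GI50 denotes the concentration required for 50% inhibition of growth. TGI: total growth inhibition.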

Test systems include U251 CNS; LOX IMVI melanoma; OVCAR-4 ovarian; UACC-257 melanoma; UACC-62 melanoma; NCI-H522 lung; OVCAR-5 ovarian; HS 578T breast; PC-3 prostate; T-47D breast.
What all share (test): inhibition of tumour cell growth, NCI panel, 48 h

`COC(=O)C1(F)C(=O)NC(=O)NC1OC` (stereo not drawn): the TGI in the assay with U251 CNS, in the assay with LOX IMVI melanoma, in the assay on OVCAR-4 ovarian, with UACC-257 melanoma, in the assay on UACC-62 melanoma and with NCI-H522 lung was above 100 µM each time. The TGI in the assay on OVCAR-5 ovarian was above 100 µM.
As for `C[N+](C)=c1nc(N2CCOCC2)ss1`, the TGI with U251 CNS, in the assay with LOX IMVI melanoma, with UACC-257 melanoma, with UACC-62 melanoma, in the assay with NCI-H522 lung and in the assay with OVCAR-5 ovarian was above 100 µM throughout.
On to `NC(=O)c1c[se]c(C2OC(COP(=O)(O)CP(=O)(O)OCC3OC(n4cnc5c(N)ncnc54)C(O)C3O)C(O)C2O)n1` (stereo not drawn), for which the TGI in the assay on U251 CNS, in the assay on OVCAR-4 ovarian, in the assay on UACC-257 melanoma, in the assay with NCI-H522 lung and in the assay on OVCAR-5 ovarian was above 100 µM throughout.
Take `CC1(C)OC(COCCOCCCCCO)C(COCCOCCCCCO)O1` (stereo not drawn): the TGI with U251 CNS, with LOX IMVI melanoma, in the assay on OVCAR-4 ovarian, in the assay on UACC-257 melanoma, in the assay on UACC-62 melanoma and in the assay with NCI-H522 lung was above 100 µM throughout. The compound further yielded a TGI in the assay with OVCAR-5 ovarian above 100 µM.
On to `COC(=O)c1cc2c3c(ccc2[nH]1)N(C(=O)c1cc2c4c(ccc2[nH]1)N(C(=O)c1cc2c5c(ccc2[nH]1)N(C(N)=O)CC5)CC4)CC3`, for which the TGI was above 21.9 µM in the assay on U251 CNS; above 34 µM in the assay on LOX IMVI melanoma; above 100 µM in the assay with OVCAR-4 ovarian; above 100 µM with UACC-257 melanoma; above 19.8 µM in the assay on UACC-62 melanoma; above 100 µM in the assay on OVCAR-5 ovarian.
With `Cc1ccccc1NC(=O)C(=O)CC(=O)c1ccc([N+](=O)[O-])cc1`, the TGI in the assay with U251 CNS, in the assay on LOX IMVI melanoma, with OVCAR-4 ovarian, with UACC-257 melanoma, in the assay on UACC-62 melanoma and with OVCAR-5 ovarian was above 100 µM throughout.
For the compound `COc1cc2cccc(N=Cc3c(Br)ccc(OC)c3OC(C)C)c2cc1OC`, the TGI in the assay with U251 CNS, with OVCAR-4 ovarian, in the assay on UACC-257 melanoma, in the assay on UACC-62 melanoma, with NCI-H522 lung and in the assay on OVCAR-5 ovarian was above 100 µM each time.
In the case of `O=[N+]([O-])C1C2C=CC(C2)[C@H]1c1ccc(Cl)cc1Cl` (stereo partly drawn), the TGI in the assay with U251 CNS is above 100 µM; in the assay on LOX IMVI melanoma it was above 100 µM; with UACC-257 melanoma, 99 µM; with OVCAR-5 ovarian, above 100 µM.
Turning to `c1cnc2[nH]cc(-c3csc(-c4cn(CCCN5CCCCC5)c5ccccc45)n3)c2c1`, the GI50 is 1.8 µM in the assay on U251 CNS; 2.34 µM in the assay on HS 578T breast; 1.82 µM in the assay with OVCAR-4 ovarian; 1.97 µM with UACC-257 melanoma; 1.7 µM in the assay on UACC-62 melanoma; 1.59 µM with PC-3 prostate. In the assay on OVCAR-5 ovarian, the GI50 is 1.63 µM. For the same compound, the TGI in the assay on U251 CNS was 3.28 µM; in the assay with HS 578T breast, 7.22 µM; with OVCAR-4 ovarian, 4.19 µM; in the assay with UACC-257 melanoma it was 3.73 µM; in the assay on UACC-62 melanoma, 3.3 µM; with PC-3 prostate it was 3.05 µM. In addition, the TGI in the assay on OVCAR-5 ovarian was 3.11 µM.
Turning to `c1ccc(NC[Si]23OCCN(CCO2)CCO3)cc1`, the TGI with U251 CNS, with UACC-257 melanoma, in the assay on UACC-62 melanoma, in the assay on NCI-H522 lung and with OVCAR-5 ovarian was above 100 µM in each case.
As for `COc1ccc(C2ONC3=NCCN32)cc1` (stereo not drawn), the GI50 with U251 CNS is 45 µM; in the assay with LOX IMVI melanoma, 14.4 µM; in the assay on OVCAR-4 ovarian, above 100 µM; in the assay on UACC-257 melanoma, above 100 µM; in the assay with UACC-62 melanoma, 67.3 µM; in the assay on PC-3 prostate, 55.4 µM. Besides, the GI50 is above 100 µM in the assay with NCI-H522 lung, above 100 µM in the assay on OVCAR-5 ovarian and 99.4 µM with T-47D breast. In addition, the TGI is above 100 µM in the assay on U251 CNS; 47.1 µM in the assay on LOX IMVI melanoma; above 100 µM in the assay on OVCAR-4 ovarian; above 100 µM with UACC-257 melanoma; above 100 µM in the assay on UACC-62 melanoma; above 100 µM in the assay on PC-3 prostate. Moreover, the TGI in the assay on NCI-H522 lung, in the assay with OVCAR-5 ovarian and in the assay with T-47D breast was above 100 µM throughout.
On to `CC(C)(C)c1cc(CCC(=O)Nc2ccc(Cl)cc2Cl)nc(N)n1`, for which the TGI in the assay with U251 CNS, in the assay with LOX IMVI melanoma, in the assay with OVCAR-4 ovarian, in the assay with UACC-257 melanoma, in the assay on UACC-62 melanoma and with OVCAR-5 ovarian was above 100 µM each time.
`O=C1C(c2ccccc2)=C(c2ccccc2)[C@H](c2ccccc2)[C@]1(Cc1nnn(-c2ccc([N+](=O)[O-])cc2)c1N1CCOCC1)c1ccccc1`: the TGI with U251 CNS, with LOX IMVI melanoma, in the assay on OVCAR-4 ovarian, in the assay on UACC-257 melanoma and in the assay on UACC-62 melanoma was above 37.5 µM in each case.
As for `C=C(CNCCc1ccc(O)cc1)[C@@H]1CC[C@]2(CO)CC[C@]3(C)[C@H](CC[C@@H]4[C@@]5(C)CCC(N)C(C)(C)[C@@H]5CC[C@]43C)[C@@H]12` (stereo partly drawn), the GI50 in the assay with U251 CNS is 0.917 µM; with OVCAR-4 ovarian it was 1.44 µM; in the assay on UACC-257 melanoma, 0.195 µM; in the assay on PC-3 prostate, 1.44 µM; in the assay on NCI-H522 lung, 1.76 µM; with T-47D breast, 1.64 µM. For the same compound, the TGI in the assay with U251 CNS was determined as 2.12 µM; in the assay with OVCAR-4 ovarian, 2.95 µM; with UACC-257 melanoma it was 0.517 µM; in the assay on PC-3 prostate, 2.98 µM; in the assay on NCI-H522 lung, 3.42 µM; with T-47D breast, 3.58 µM.
Turning to `NC(N)=N/N=C/c1c(-c2ccc(Cl)c([N+](=O)[O-])c2)nc2n1CCS2`, the GI50 with LOX IMVI melanoma is 2.43 µM; with OVCAR-4 ovarian, 14.7 µM; in the assay with UACC-257 melanoma, 20.6 µM; in the assay with UACC-62 melanoma it was 1.64 µM; in the assay with PC-3 prostate, 2.93 µM; in the assay on NCI-H522 lung, 35.6 µM. Besides, the GI50 is 14.6 µM in the assay on OVCAR-5 ovarian and 21.6 µM with T-47D breast. Moreover, the TGI is 7.09 µM with LOX IMVI melanoma; 32.8 µM with OVCAR-4 ovarian; 51.8 µM in the assay with UACC-257 melanoma; 3.64 µM with UACC-62 melanoma; 15.1 µM in the assay with PC-3 prostate; above 100 µM in the assay with NCI-H522 lung. The figures for the TGI in the assay on OVCAR-5 ovarian and in the assay on T-47D breast were 27.8 µM and 50.2 µM, respectively.
